Laboratory results: the supplement of paper PMC10307832

Legend:
Experiment in all cases: relative viability (nuclei count vs DMSO), 5 days (fraction); higher = more cells survive
[1] = compound: C1=CC2=C(C=CC(=C2)C=C3C(=O)NC(=NCC4=CC=CS4)S3)N=C1 [RO-3306] + Cc1nc(Nc2ncc(C(=O)Nc3c(C)cccc3Cl)s2)cc(N2CCN(CCO)CC2)n1 [Dasatinib] (partner 0.075 µM)
Summary of the method: (§1)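 Relative viability equals treated-well nuclei counts divided by vehicle-well nuclei counts. Counts came from 4× images of lung cancer cell lines grown in 1536-well plates for 5 days after pin-tool dosing on the day after seeding. Dosing used one drug alone or a fixed anchor-drug dose plus five library-drug doses (not always all listed) in √10 steps, and values are medians of duplicate plates.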

[2] = compound: O=S(=O)(c1ccccc1)N(CC(F)(F)F)c1ccc(C(O)(C(F)(F)F)C(F)(F)F)cc1 + Cc1nc(NC(=O)N2CCC[C@H]2C(N)=O)sc1-c1ccnc(C(C)(C)C(F)(F)F)c1 [Alpelisib] (partner 2 µM)
Summary of the method: as §1

[3] = compound: O=S(=O)(c1ccccc1)N(CC(F)(F)F)c1ccc(C(O)(C(F)(F)F)C(F)(F)F)cc1 + COc1cccc2cc(-c3nc([C@H]4CC[C@H](C(=O)O)CC4)n4ncnc(N)c34)[nH]c12 [OSI-027] (partner 0.5 µM)
Summary of the method: as §1

[4] = compound: C1=CC2=C(C=CC(=C2)C=C3C(=O)NC(=NCC4=CC=CS4)S3)N=C1 [RO-3306] + CC(C)C[C@H](NC(=O)[C@H](Cc1ccccc1)NC(=O)c1cnccn1)B(O)O [Bortezomib] (partner 0.002 µM)
Summary of the method: as §1

[5] = compound: O=S(=O)(c1ccccc1)N(CC(F)(F)F)c1ccc(C(O)(C(F)(F)F)C(F)(F)F)cc1 + Nc1ncn([C@H]2C[C@H](O)[C@@H](CO)O2)c(=O)n1 [Decitabine] (partner 2 µM)
Summary of the method: as §1

| Cell Line | relative viability ([1]; first compound 0.01 µM) | relative viability ([1]; first compound 0.03162 µM) | relative viability ([1]; first compound 0.1 µM) | relative viability ([1]; first compound 0.3162 µM) | relative viability ([1]; first compound 1 µM) | relative viability ([2]; first compound 0.8 µM) | relative viability ([2]; first compound 2.53 µM) | relative viability ([2]; first compound 8 µM) | relative viability ([3]; first compound 0.8 µM) | relative viability ([3]; first compound 2.53 µM) | relative viability ([3]; first compound 8 µM) | relative viability ([4]; first compound 0.01 µM) | relative viability ([4]; first compound 0.03162 µM) | relative viability ([4]; first compound 0.1 µM) | relative viability ([4]; first compound 0.3162 µM) | relative viability ([4]; first compound 1 µM) | relative viability ([5]; first compound 0.8 µM) | relative viability ([5]; first compound 2.53 µM) | relative viability ([5]; first compound 8 µM) |
| --- | --- | --- | --- | --- | --- | --- | --- | --- | --- | --- | --- | --- | --- | --- | --- | --- | --- | --- | --- |
| NCI-H1437 | 0.428 | 0.288 | 0.283 | 0.405 | 0.461 | 0.904 | 0.771 | 0.718 | 0.915 | 0.811 | 0.822 | 0.57 | 0.346 | 0.529 | 0.582 | 0.484 | 0.609 | 0.549 | 0.568 |
| NCI-H1651 | 0.383 | 0.329 | 0.382 | 0.418 | 0.354 | 0.94 | 0.972 | 0.89 | 0.742 | 0.793 | 0.703 | 0.887 | 0.877 | 0.923 | 0.853 | 0.858 | 0.793 | 0.668 | 0.517 |
| NCI-H1666 | 0.794 | 0.724 | 0.772 | 0.795 | 0.698 | 0.776 | 0.868 | 0.892 | 0.849 | 0.819 | 0.813 | 0.848 | 0.734 | 0.713 | 0.765 | 0.598 | 0.697 | 0.661 | 0.684 |
| NCI-H1734 | 0.442 | 0.476 | 0.444 | 0.473 | 0.443 | 0.845 | 0.626 | 0.708 | 0.708 | 0.55 | 0.637 | 0.956 | 0.763 | 0.866 | 0.885 | 0.597 | 0.524 | 0.477 | 0.477 |
| NCI-H1755 | 0.46 | 0.417 | 0.441 | 0.366 | 0.411 | 0.981 | 0.91 | 0.83 | 0.712 | 0.657 | 0.691 | 1.13 | 0.983 | 0.976 | 0.936 | 0.978 | 0.781 | 0.765 | 0.829 |
| NCI-H1792 | 1.03 |  | 0.752 | 0.814 | 0.55 | 0.629 | 0.445 | 0.34 | 0.688 | 0.717 | 0.458 | 1.17 |  | 0.95 | 0.991 | 0.538 | 0.562 | 0.395 | 0.562 |
| NCI-H1915 | 0.341 | 0.312 | 0.288 | 0.329 | 0.253 | 1.09 | 1.03 | 1.02 | 0.643 | 0.646 | 0.649 | 1.07 | 0.895 | 1.09 | 1.01 | 0.488 | 0.287 | 0.281 | 0.29 |
| NCI-H1975 | 0.345 | 0.324 | 0.344 | 0.35 | 0.344 | 0.616 | 0.581 | 0.594 | 0.885 | 0.641 | 0.71 | 0.468 | 0.358 | 0.343 | 0.417 | 0.243 | 0.453 | 0.545 | 0.472 |
| NCI-H1993 | 0.754 | 0.49 | 0.695 | 0.586 | 0.523 | 0.707 | 0.674 | 0.77 | 0.58 | 0.341 | 0.552 |  | 1.11 | 1.02 | 0.887 | 0.777 | 0.515 | 0.563 | 0.579 |
| NCI-H2009 | 0.279 | 0.267 | 0.265 | 0.293 | 0.277 | 1.09 | 1.02 | 0.964 | 0.588 | 0.567 | 0.568 | 0.994 | 0.82 | 1 | 1.06 | 1 | 0.366 | 0.372 | 0.369 |
| NCI-H2023 | 0.742 | 0.47 | 0.496 | 0.598 | 0.518 | 0.574 | 0.606 | 0.506 | 0.41 | 0.279 | 0.286 | 1.01 | 0.795 | 0.979 | 1.13 | 1.07 | 0.221 | 0.233 | 0.221 |
| NCI-H2085 | 0.212 | 0.221 | 0.225 | 0.265 | 0.237 | 0.982 | 0.885 | 0.969 | 0.98 | 0.718 | 0.769 | 1.09 | 0.956 | 0.935 | 0.993 | 1.04 | 0.508 | 0.539 | 0.501 |
| NCI-H2087 | 1.01 | 0.541 | 0.914 | 0.869 | 1.04 | 1.16 | 1.11 | 0.972 | 0.6 | 0.487 | 0.622 | 0.726 | 0.843 | 0.729 | 0.947 | 0.738 | 0.305 | 0.327 | 0.301 |
| NCI-H2126 | 0.663 | 0.622 | 0.58 | 0.523 | 0.542 | 0.878 | 0.768 | 0.773 | 0.819 | 0.673 | 0.717 | 1.14 | 1.18 | 1.12 | 1.05 | 1 | 0.655 | 0.573 | 0.533 |
| NCI-H2347 | 0.296 | 0.285 | 0.285 | 0.284 | 0.283 | 1.25 | 1.2 | 1.04 | 0.699 | 0.445 | 0.302 | 1.07 | 0.633 | 0.98 | 0.823 | 0.711 | 0.657 | 0.614 | 0.66 |
| NCI-H2405 | 0.199 | 0.493 | 0.173 | 0.225 | 0.463 | 0.877 | 0.795 | 0.868 | 0.674 | 0.645 | 0.681 | 1.07 | 0.963 | 0.982 | 0.959 | 1.03 | 0.841 | 0.701 | 0.797 |
| NCI-H3122 | 0.823 | 0.751 | 0.835 | 0.787 | 0.857 | 0.744 | 0.627 | 0.672 | 1.18 | 0.807 | 1.14 | 0.952 | 1.01 | 1.06 | 1.03 | 0.738 | 0.301 | 0.385 | 0.421 |
